According to patent US7792576B2, “Method of treatment for central nervous system injury” (Purdue Research Foundation, priority 2002, dated 2010):

What was measured:
retinal ganglion cells = conditions: administered in vitro to retinal ganglion cells; U.S. Pat. No. 6,440,455 and Benowitz et al. 1999; cited from earlier work
[1] = system: ascending and descending axons of transected spinal cord white matter in adult guinea pig; experiment: Anterograde intracellular labeling of spinal cord white matter axons: axonal projections relative to the plane of transection (Study One); type: in vivo
Method: A laminectomy procedure exposing the dorsal aspect of the spinal cord was performed on all animals between T9 and T11. A right lateral hemisection was performed (FIG. 1) using a special cutting device, and further confirmed to be “complete” (that is, leaving no spared parenchyma) by passing a sharpened pin through the cut tissue. This operation severs the entire right side of the cord from the midline to the far right border of the spinal cord forming a rostral and caudal segment. The entire left side of the spinal cord was left intact. Immediately after transection, a marker device made of surgical stainless steel was inserted into the lesion, as previously described in Borgens et al. (1986) J. Comp. Neurol 250, 168-180 and Borgens and Bohnert (1997) Exp. Neurol. 145, 376-389. This device was left in situ for the duration of the study, and removed prior to histological processing. This procedure leaves a hole in the tissue, which accurately marks the exact plane of transaction even in chronic injuries many months old (FIGS. 1 and 2). The injection of various intracellular labels into guinea pig spinal cord white matter has been described in numerous previous publications. See, for example, Borgens et al. (1986) J Comp Neurol 250, 168-180 and Borgens et al. (1999) Journal of Neurotrauma 16, 639-57. Briefly, approximately 18 hours prior to the sacrifice of the animal, the spinal cord was exposed by surgery, and approximately […], of a fluorescently labeled dextran was injected using a Hamiliton syringe. The label (50% in distilled water; 10,000 Daltons) was injected deep into the parenchyma of white matter, approximately two vertebral segments rostral and caudal of the plane of transection (usually still visible, due to the indwelling marker device). A FITC conjugated dextran (“Flouro-emerald”) was injected rostral to the plane of transection, and a rhodamine-conjugated dextran (“Flouro-ruby”) was injected caudal to the plane of transaction. Thus, this anterograde double label technique marked both ascending fibers (mostly sensory afferent fibers) projecting towards the lesion from below it and descending axons (mainly motor fibers) projecting towards the lesion from above it). Longitudinal horizontal sections provided histological samples in which the entire extent of projection of a single axon often can be traced to fall short of, or regenerate to, around, or through the plane of transection. This procedure can sometimes provide dramatic examples of single unit axon degeneration and regeneration. However, it is not productive to attempt to count individual axons in longitudinal horizontal sections. Often axons take tortuous and curving trajectories, and would be counted more than once in individual histological samples. Additionally, sprouting and branching of fibers can lead to false counting relative to the extended growth from the stump of an individual severed fiber. Rather, the proportion of animals in which axons can be traced to terminate more than 250 μms from the plane of transaction (exactly identified by use of the indwelling marker), within 250 μms of the actual plane of transaction, and to cross the exact plane of transection into the adjacent segment of cord is compared. […] Images from an Olympus Van Ox microscope were obtained with an Optronics DEI-750 color video camera and captured to a PC with Adobe Twain 32 software. Table 1, below, provides the numbers of spinal cords that were injected with the intracellular label (N) and those that were lost to histology (LTH) for each of the three groups. The proportions of those cords in which marked fibers were traced to the four zones are given over the number of cords examined. Statistical Comparison between the groups is provided at the bottom of the graph (Fishers' exact two tailed test). […] Table 1 summarizes the results of anterograde filling of both ascending and descending tracts within the spinal cords of all animals in the Study One, of chronically injured animals. […]

[2] = system: CTM reflex after right lateral hemisection of the spinal cord in adult guinea pig; experiment: Behavioral recovery of the cutaneous trunci muscle (CTM) reflex after chronic spinal cord injury (Study One); type: in vivo
Source text: Fully adult (approximately 400 grams (g)) female guinea pigs were used in this study (Hartley Strain). They were anesthetized with ketamine/xylyzine by conventional methods (Borgens et al. (2002) J. Exp. Biol. 205, 1-12) prior to surgery, kept warm with heat lamps after surgery, and maintained individually in pens and fed ad libidum for the duration of the investigation. Animals were euthanized at the end of the study, prior to the harvesting of spinal cords for anatomical study by an overdose of the anesthesia (see Borgens et al. (2002) J. Exp. Biol. 205, 1-12).
A laminectomy procedure exposing the dorsal aspect of the spinal cord was performed on all animals between T9 and T11. A right lateral hemisection was performed (FIG. 1) using a special cutting device, and further confirmed to be “complete” (that is, leaving no spared parenchyma) by passing a sharpened pin through the cut tissue. This operation severs the entire right side of the cord from the midline to the far right border of the spinal cord forming a rostral and caudal segment. The entire left side of the spinal cord was left intact. Immediately after transection, a marker device made of surgical stainless steel was inserted into the lesion, as previously described in Borgens et al. (1986) J. Comp. Neurol 250, 168-180 and Borgens and Bohnert (1997) Exp. Neurol. 145, 376-389. […]

| Structure (SMILES) | axonal outgrowth (retinal ganglion cells) | Descending fibers, Zone 4: proportion of cords ([1]; FITC-labeled descending fibers projecting into the adjacent segment of cord, over number of cords examined) | Descending fibers, Zone 3: proportion of cords ([1]; FITC-labeled descending fibers terminating at the plane of transection, over number of cords examined) | Descending fibers, Zone 1 >250: cords with labeled fibers ([1]; FITC-labeled descending fibers terminating more than 250 μm from the plane of transection, chronic SCI) | Descending fibers, Zone 2 <250: proportion of cords ([1]; FITC-labeled descending fibers within 250 μm of the plane of transection, over number of cords examined) | Ascending fibers, Zone 4: proportion of cords ([1]; rhodamine-labeled ascending fibers projecting into the adjacent segment of cord, over number of cords examined) | Ascending fibers, Zone 3: proportion of cords ([1]; rhodamine-labeled ascending fibers terminating at the plane of transection, over number of cords examined) | Ascending fibers, Zone 1 >250: cords with labeled fibers ([1]; rhodamine-labeled ascending fibers terminating more than 250 μm from the plane of transection, chronic SCI) | Ascending fibers, Zone 2 <250: proportion of cords ([1]; rhodamine-labeled ascending fibers within 250 μm of the plane of transection, over number of cords examined) | percent recovery of the CTM receptive field (mean) ([2]; at the end of the study, chronic SCI, P=0.5 between groups (Mann Whitney)) | animals that recovered some amount of CTM behavior ([2]; chronic SCI treated about 3 months after hemisection, inosine 10 mM s.c. osmotic pump 14 days, with or without OFS 4 weeks, 15 inosine, 16 inosine+OFS animals, none of 15 controls recovered) |
| --- | --- | --- | --- | --- | --- | --- | --- | --- | --- | --- | --- |
| Nc1nc2c(ncn2[C@@H]2O[C@H](CO)[C@@H](O)[C@H]2O)c(=O)[nH]1 [guanosine] | stimulating axonal outgrowth |  |  |  |  |  |  |  |  |  |  |
| OC[C@H]1O[C@@H](n2cnc3c(O)ncnc32)[C@H](O)[C@@H]1O [Inosine, inosine] | stimulating axonal outgrowth | 1/8 | 2/8 | 8 | 7/8 | 2/12 | 7/12 | 12 | 10/12 | 23.5±3.6% | 11 animals |
